The values that follow come from the METLIN SMRT retention time set (Domingo-Almenara et al. 2019).

The nature of this data set: gradient 5% acetonitrile 3 min, to 50% in 2 min, to 85% in 15 min, held 3 min, 100 µL/min. Particulars: column: Zorbax Extend-C18 2.1 x 50 mm; eluents: water / acetonitrile, 0.1% formic acid. The method, boiled down: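 Each retention time is based on an adduct peak selected computationally and verified by manual inspection. Measurements used HPLC–quadrupole time-of-flight mass spectrometry in positive and negative ionization mode on mixtures of ~100 pure standards. Chromatography ran on a Zorbax Extend-C18 column (2.1 × 50 mm, 1.8 μm) at 100 μL/min with water and acetonitrile, each containing 0.1% formic acid, and dead and dwell volumes of 40 μL and 900 μL.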
Take `COC[C@@H]1CN(c2cnccn2)C[C@H]1C(=O)NCCn1cccn1`: the RP-LC retention time turned out to be 564 s.

`CN(C)c1ccc(CN2CCc3nc(N4CCN(c5ccccc5F)CC4)ncc3C2)cc1` gave an RP-LC retention time of 807 s.

Turning to `Cc1ccccc1-c1nnc(COc2ccc(NC(=O)C3CCC3)cc2)o1`, the RP-LC retention time came out at 885 s.

On to `CNC(=O)c1c2c(nc3ccccc13)CCC2`, for which the RP-LC retention time came out at 542 s.

For the molecule `Cc1ccccc1C(=O)NCCCn1cccc1`, the RP-LC retention time was 762 s.

`CCOC(=O)C1CCN(S(=O)(=O)c2cc3n(c2)CCCN(CC)C3=O)CC1` gave an RP-LC retention time of 679 s.

The molecule `COC(=O)Cn1nc2ccc(S(=O)(=O)N3CCSCC3)cn2c1=O` returned an RP-LC retention time of 711 s.

The molecule `CCOc1cn(-c2ccc(F)cc2)nc1C(=O)NCc1cccs1` came in with an RP-LC retention time of 873 s.

In turn, `COc1ccc(N2CC(c3nc(-c4ccc5c(c4)OCO5)no3)CC2=O)cc1` (stereo unspecified) registered an RP-LC retention time of 891 s.

With `Cc1ccc(-c2cn3c(C(=O)Nc4nc(C)cs4)csc3n2)cc1`, the RP-LC retention time amounted to 848 s.

Consider `Cc1nc(-c2csc(S(=O)(=O)N3CCC(C(=O)N4CCCCC4)CC3)c2)no1`, for which the RP-LC retention time turned out to be 818 s.

`COc1ccc(C)cc1NC(=O)Cc1csc2nc(-c3ccc(C)c(C)c3)cn12` had an RP-LC retention time of 930 s.

In turn, `CC(C)S(=O)(=O)N1CC(N(C)Cc2cccnc2)C1` registered an RP-LC retention time of 562 s.

`Cc1ccc(-c2nc(NC(=O)c3sc(C)nc3C)sc2C)cc1` had an RP-LC retention time of 1000 s.

Regarding `CS(=O)(=O)N1CCC(C(=O)NCC2CCN(C(=O)Nc3ccc(F)cc3)CC2)CC1`, the RP-LC retention time came to 622 s.

The molecule `COc1ccc(Cl)cc1S(=O)(=O)N1CCC(n2cnnc2C)CC1` gave an RP-LC retention time of 684 s.

`COc1nc2ccccc2nc1N1CCCC(C(=O)NCc2ccccc2)C1` (stereo unspecified) yielded an RP-LC retention time of 1040 s.

In turn, `CN1C(=O)C(CC(=O)NCc2nc3ccccc3n2C)=C2CCCCC21` (stereo unspecified) gave an RP-LC retention time of 600 s.

Molecule `CCc1nc2c(=O)n(CC(=O)N(CC)Cc3ccccc3)nc(C)c2s1` showed an RP-LC retention time of 740 s.

As to `COc1cccc(Cn2cccc(S(=O)(=O)N3CCCCCC3)c2=O)c1`, the RP-LC retention time is 935 s.

Turning to `COc1ccc(OC)c(CNC(=O)c2ccc3c(c2)NC(=O)C2CCCCN32)c1` (stereo unspecified), the RP-LC retention time came out at 806 s.

On to `O=C(Nc1ccc(-c2nnc3n2CCCC3)cc1)c1ccc2c(c1)OCO2`, for which the RP-LC retention time was found to be 661 s.

`Cc1csc(NC(=O)C2CCN(S(=O)(=O)c3cc(C(=O)N4CCOCC4)cs3)CC2)n1`: the RP-LC retention time was determined as 702 s.

In turn, `O=C(Cc1c[nH]c2ccccc12)NCCc1c[nH]c2ccc(F)cc12` showed an RP-LC retention time of 804 s.

In turn, `CC(C)Cc1cc(-c2nnc3sc(-c4cccc(N(C)C)c4)nn23)n[nH]1` returned an RP-LC retention time of 1020 s.

Take `O=C(NCc1ccc2c(c1)OCO2)C(=O)c1cn(CC(=O)N2CCOCC2)c2ccccc12`: the RP-LC retention time turned out to be 804 s.

In turn, `CCn1ccnc1CC1COc2ccccc2O1` (stereo unspecified) returned an RP-LC retention time of 682 s.

Take `COc1ccc(-c2noc(Cn3cnc4c(cnn4-c4ccc(F)cc4)c3=O)n2)cc1OC`: the RP-LC retention time came out at 930 s.

In turn, `CCC(=O)N1CCc2cc(N3CC(C(=O)Nc4ccccc4)CC3=O)ccc21` (stereo unspecified) returned an RP-LC retention time of 720 s.

Molecule `COC(=O)c1ccc(NC(=O)N2CCC(CCOc3ccc(F)cc3)C2)cc1` (stereo unspecified) displayed an RP-LC retention time of 981 s.

Regarding `c1ccc2c(c1)CC(N1CCN(c3cccc4c3OCCO4)CC1)C2`, the RP-LC retention time came out at 741 s.

`CCc1cc(=O)n(CC(=O)Nc2ccc(C)cc2)c(N)n1` registered an RP-LC retention time of 617 s.

The molecule `CC(=O)c1cccc(Nc2c(C(=O)OC(C)C)cnc3nc(C)ccc23)c1` registered an RP-LC retention time of 694 s.

On to `Cc1cc(Cl)ccc1OCc1nc(-c2ccc3c(c2)nnn3CCC(=O)N2CCCCCC2)no1`, for which the RP-LC retention time was found to be 1180 s.

Take `COc1ccc(-c2csc3c(=O)n(Cc4cccc(F)c4)cnc23)cc1`: the RP-LC retention time amounted to 1050 s.

Molecule `Cc1ccc(-c2cn3c(n2)N(C(=O)C2CCCO2)CCC3)cc1` (stereo unspecified) registered an RP-LC retention time of 635 s.

As for `Cc1ccc(N2CCN(C(=O)c3ccc4ncnc(N5CCCC5)c4c3)CC2)cc1`, the RP-LC retention time amounted to 668 s.

`Nc1nc(N2CCN(c3ccccc3)CC2)ncc1C(=O)Nc1ccccc1`: the RP-LC retention time was 784 s.

`CCCN1C(=O)c2c(C(=O)NCc3cccc(F)c3)ncn2CC1(C)C(=O)NC1CCCC1` (stereo unspecified) had an RP-LC retention time of 821 s.

For `Cc1ccc(NC(=O)Cc2nnc(-c3cnccn3)o2)cc1`, the RP-LC retention time is 698 s.

In turn, `CC1CCN(S(=O)(=O)c2ccc3c(ccc(=O)n3CC(=O)NC3CCCc4ccccc43)c2)CC1` (stereo unspecified) displayed an RP-LC retention time of 919 s.

In turn, `Cc1ccc(N2N=C(C(=O)N3CCCC3)S(=O)(=O)c3cccnc32)cc1` showed an RP-LC retention time of 830 s.

Turning to `COc1cccc(CNC(=O)c2cc3c(=O)n(C)ccc3n2C)c1`, the RP-LC retention time amounted to 663 s.

`Cn1ccc(C(=O)Nc2ccc(S(C)(=O)=O)cc2)n1` registered an RP-LC retention time of 613 s.

Molecule `CN(C)CCNC(=O)c1ccc(Nc2c(-c3ccccc3)nc3cnccn23)cc1` had an RP-LC retention time of 586 s.

Consider `COc1ccc(-c2c(C)noc2NC(C)=O)cc1S(=O)(=O)N1CCN(C(=O)c2ccco2)CC1`, for which the RP-LC retention time was determined as 670 s.

The molecule `CCCN(CC1CCOC1)C(=O)c1cc(Cl)ccc1F` (stereo unspecified) registered an RP-LC retention time of 844 s.

On to `O=C1c2ccccc2NC(c2cc(Cl)cc(Cl)c2O)N1CCc1ccccn1` (stereo unspecified), for which the RP-LC retention time stood at 723 s.

For the molecule `Cn1c(N2CCCC(C(=O)Nc3ccccc3)C2)cc(=O)n(C)c1=O` (stereo unspecified), the RP-LC retention time stood at 649 s.

Consider `Cc1ccc(NC(=O)Cn2nc(C(=O)N3CCCCC3)c3ccccc32)c(Br)c1`, for which the RP-LC retention time came to 973 s.

The molecule `CCN1C(=O)c2cccc3c(NC(=O)CSc4ccc(Cl)cc4)ccc1c23` gave an RP-LC retention time of 861 s.

Turning to `COc1ccc(NC(=O)C2CC(=O)N(c3n[nH]c4cccc(F)c34)C2)c(OC)c1` (stereo unspecified), the RP-LC retention time came out at 713 s.

For the molecule `CN(C1CCc2nn(CC3CC3)c(=O)n2CC1)S(=O)(=O)c1cccc(Cl)c1` (stereo unspecified), the RP-LC retention time came out at 818 s.

Regarding `CCc1ccccc1S(=O)(=O)NCc1cccnc1-c1ccc(OC)cc1`, the RP-LC retention time came out at 718 s.

The molecule `CC1=C(c2ccc(F)cc2)S(=O)(=O)N=C1N1CCCN(C(=O)C(C)C)CC1` showed an RP-LC retention time of 751 s.

As for `Cc1ccc(Cn2c(N3CCCC(C(=O)Nc4cccc(C)c4)C3)nc3ccsc3c2=O)cc1` (stereo unspecified), the RP-LC retention time was determined as 1080 s.

`CC1CCCN(c2ccn3c(=O)n(CC(=O)NCc4ccc(F)cc4F)nc3n2)C1` (stereo unspecified) displayed an RP-LC retention time of 772 s.

In turn, `CCOC(=O)c1c(C)c(CCC(=O)NCCN2CCCCC2)c(C)n1C` showed an RP-LC retention time of 573 s.

Regarding `CCOc1ccc(-c2[nH]ncc2CNS(=O)(=O)c2ccc(NC(C)=O)cc2)cc1`, the RP-LC retention time was 702 s.

In the case of `Cc1ccn(-c2ccc(C(=O)NC3CCCC3)cn2)n1`, the RP-LC retention time was 815 s.

In turn, `COc1ccc(CC(=O)NCC2(CO)CC2)cc1OC` had an RP-LC retention time of 582 s.
